± gives the uncertainty stated by the source.
Assay: xn = mol fraction of the nth substance listed

CCC#N + CC(C)(C)O
viscosity [mPa·s], 101 kPa
Conditions | x2 = 0.0744 | x2 = 0.1541 | x2 = 0.2403 | x2 = 0.3272 | x2 = 0.4258 | x2 = 0.5242 | x2 = 0.6146 | x2 = 0.7448 | x2 = 0.8667
298.15 K | 0.4226 ± 0.0045 | 0.4462 ± 0.0047 | 0.4934 ± 0.0051 | 0.5641 ± 0.0057 | 0.6672 ± 0.0066 | 0.8059 ± 0.0078 | 1.024 ± 0.0097 | 1.526 ± 0.014 | 2.346 ± 0.021
303.15 K | 0.4138 ± 0.0044 | 0.4431 ± 0.0047 | 0.487 ± 0.005 | 0.5397 ± 0.0055 | 0.6276 ± 0.0062 | 0.739 ± 0.0072 | 0.9208 ± 0.0088 | 1.34 ± 0.012 | 2.022 ± 0.018
308.15 K | 0.3997 ± 0.0043 | 0.4317 ± 0.0046 | 0.4754 ± 0.0049 | 0.5219 ± 0.0053 | 0.5918 ± 0.0059 | 0.6821 ± 0.0067 | 0.8394 ± 0.0081 | 1.186 ± 0.011 | 1.741 ± 0.016

CCCCCCCCCCO + CCCCCCCCCC
298.15 K, 101.3 kPa
Conditions | viscosity [mPa·s]
x1 = 0.0518 | 0.924 ± 0.016
x1 = 0.1069 | 1.021 ± 0.016
x1 = 0.1649 | 1.168 ± 0.018
x1 = 0.2141 | 1.308 ± 0.019
x1 = 0.2591 | 1.457 ± 0.021
x1 = 0.3013 | 1.618 ± 0.022
x1 = 0.4008 | 2.078 ± 0.026
x1 = 0.5047 | 2.74 ± 0.032
x1 = 0.6063 | 3.619 ± 0.038
x1 = 0.6847 | 4.535 ± 0.045
x1 = 0.8044 | 6.474 ± 0.056
x1 = 0.8482 | 7.392 ± 0.061
x1 = 0.8943 | 8.5 ± 0.066
x1 = 0.9494 | 10.05 ± 0.073

OCCOCCOCCO + CC(C)O
viscosity [mPa·s], 100 kPa
Conditions | x1 = 0.081 | x1 = 0.1598 | x1 = 0.2401 | x1 = 0.3501 | x1 = 0.44 | x1 = 0.5601 | x1 = 0.6501 | x1 = 0.74 | x1 = 0.8498 | x1 = 0.9398
293.15 K | 4.61 ± 0.1 | 6.73 ± 0.14 | 9.06 ± 0.19 | 12.51 ± 0.26 | 15.58 ± 0.33 | 20.36 ± 0.43 | 24.67 ± 0.52 | 29.58 ± 0.62 | 36.45 ± 0.76 | 43.07 ± 0.9
298.15 K | 3.54 ± 0.07 | 5.11 ± 0.11 | 6.84 ± 0.14 | 9.44 ± 0.2 | 11.82 ± 0.25 | 15.58 ± 0.33 | 18.9 ± 0.4 | 22.75 ± 0.48 | 28.15 ± 0.59 | 33.34 ± 0.7
303.15 K | 3.21 ± 0.07 | 4.58 ± 0.1 | 5.98 ± 0.13 | 8.15 ± 0.17 | 10.07 ± 0.21 | 13.01 ± 0.27 | 15.62 ± 0.33 | 18.54 ± 0.39 | 22.62 ± 0.47 | 26.49 ± 0.55
308.15 K | 2.65 ± 0.06 | 3.73 ± 0.08 | 4.95 ± 0.1 | 6.7 ± 0.14 | 8.26 ± 0.17 | 10.68 ± 0.22 | 12.73 ± 0.27 | 15.05 ± 0.31 | 18.28 ± 0.38 | 21.38 ± 0.45
313.15 K | 2.22 ± 0.05 | 3.12 ± 0.07 | 4.05 ± 0.09 | 5.45 ± 0.11 | 6.71 ± 0.14 | 8.67 ± 0.18 | 10.32 ± 0.22 | 12.22 ± 0.26 | 14.86 ± 0.31 | 17.32 ± 0.36
318.15 K | 1.97 ± 0.04 | 2.79 ± 0.06 | 3.63 ± 0.08 | 4.83 ± 0.1 | 5.88 ± 0.12 | 7.5 ± 0.16 | 8.82 ± 0.18 | 10.32 ± 0.22 | 12.42 ± 0.26 | 14.36 ± 0.3
323.15 K | 1.8 ± 0.04 | 2.54 ± 0.05 | 3.32 ± 0.07 | 4.44 ± 0.09 | 5.39 ± 0.11 | 6.74 ± 0.14 | 7.86 ± 0.16 | 9.07 ± 0.19 | 10.68 ± 0.22 | 12.14 ± 0.25

NC(N)=O + CC(C)O
viscosity [mPa·s], 101 kPa
Conditions | 293.15 K | 298.15 K | 303.15 K | 308.15 K | 313.15 K | 318.15 K | 323.15 K
x1 = 0.02132 | 2.552 ± 0.023 | 2.196 ± 0.02 | 1.899 ± 0.017 | 1.65 ± 0.015 | 1.44 ± 0.013 | 1.262 ± 0.012 | 1.111 ± 0.01
x1 = 0.02695 | 2.58 ± 0.023 | 2.22 ± 0.02 | 1.92 ± 0.017 | 1.669 ± 0.015 | 1.457 ± 0.013 | 1.277 ± 0.012 | 1.124 ± 0.011
x1 = 0.03401 | 2.6 ± 0.023 | 2.243 ± 0.02 | 1.944 ± 0.018 | 1.693 ± 0.015 | 1.481 ± 0.014 | 1.301 ± 0.012 | 1.147 ± 0.011

From the CheMixHub viscosity set
